Measured values from patent US20210108199A1, “Treatment for aggressive cancers by targeting C9ORF72” (The Trustees of Columbia University in the City of New York, priority 2017, published 2021).

How the values were obtained:
Assay type in all cases: cell-based
[1] = system: U87 cells; assay: ptfLC3 fluorescent autophagy marker imaging; conditions: U87 cells transfected with ptfLC3
Procedure: Cells were plated on coverslips in 60-mm culture dishes, and after 48 hours washed twice with PBS followed by incubation with 4% paraformaldehyde (Sigma™) for 20 minutes. Cells then were washed three times with PBS, incubated with PBS/0.5% Triton™ X-100 for 1½ minutes, washed once with PBS and then blocked with 0.5% bovine serum albumin (Sigma™) in PBS for 30 minutes at room temperature before treatment with 100 μL of the diluted primary antibodies (1:1000) for 1 hour at room temperature. The coverslips were then washed three times with PBS and stained by incubation with 100 μL of diluted (1:100) secondary antibody (1:100). The coverslips were then washed three times with PBS and mounted on coverslips with a mounting media containing DAPI stain (Vectashield™, H-1200). Coverslips were imaged at room temperature (about 22° C.) using 40×, 1.3 NA or 63×, 1.4 NA oil immersion lenses on a confocal microscope (LSM 700; Carl Zeiss™).
To this end, C9 was knocked down in U87 cells and employed a fluorescent autophagy marker ptfLC3 to mark autophagosomes and autophagolysosomes. […] The white arrows show vacuoles and the white box represents a zoom in of the cell area with vacuoles. […] The white box here represents a zoom in of the cell area with vacuoles, nuclei stained with DAPI (blue). FIG. 4B is a WB showing LAMP1 levels after control (siCtrl) and C9 KD (siC9; SEQ ID NO:631).

[2] = system: HCC1937 cells (with BRCA1 mutation); assay: CellTiter-Glo viability assay in HCC1937 cells
Procedure: […] (HCC1937, with BRCA1 mutation) cells were harvested using trypsin (0.5 ml per well) and the media was saved from each well. The saved media were resuspended with the trypsinised cells and 2-3 aliquots (0.05 ml each) of this suspension was transferred to 96-well plates. HCC cells were subjected to S1 and S2 as described above. A CellTiter-Glo™ Luminescent Viability assay was used to measure the viability of these aliquots by adding 0.15 mL of the CTG-media mixture to each well. The rest of the culture was used to extract protein. Viability of cells was measured using the 1:1 dilution of the CellTiter-Glo™ Luminescent reagent (Promega™) with media, which was read on a Victor 5™ plate reader after 10 minutes of shaking at room temperature. The intensity of luminescence was normalized to that of the DMSO control.
Without being bound to any particular theory, it is believed that this is because PARP1 is inhibited which is known to cause death in BRCA1 deficient breast cancer cell lines.

[3] = system: cortical neurons; assay: C9 knockdown in neurons and live imaging of mitochondria; conditions: rat-derived cortical neurons
Procedure: Cortices from E19 embryonic brains from pregnant Sprague-Dawley female rats were dissected in ice-cold HBSS (ThermoFisher™ Scientific #24020117), supplemented with 10 mM HEPES (pH 7.4), 10 mM MgCl2, 1% P/S and 0.5 mM L-glutamine. The hippocampal tissue was discarded and only the cortical tissue was trypsinized for 15 minutes at 37° C. in a water bath and resuspended in DMEM with 10% FBS and 1% P/S. The dissociated neurons were subjected to centrifugation to remove debris, counted and plated onto MatTek™ 35 mm or 50 mm glass bottom dishes pre-coated with Poly-L-Lysine (1 mg/mL) and Laminin, at a density of 100,000 for live imaging experiments. After about 12-15 hours, the medium was changed to Neurobasal medium supplemented with 0.5 mM L-Glutamine, B-27 serum free supplement (Gibco™) and 1% P/S. Media were changed every 2-3 days.
Day 7 cortical neurons were transfected with 80 nM C9orf72 siRNA and 40 ng CMV-GFP vector using a magnetofectamine kit (OZ Biosciences™ #MTX0750). […]

[4] = system: p53 null U87 cells; assay: Vacuoles in p53 null U87 clones; conditions: p53 null U87 clones KO #4 and KO #9
Procedure: To generate p53 knockout clones, U87 cells (7×10^5) were transfected with 2 μg p53 CRISPR/Cas9 KO plasmid (Santa Cruz Biotech™, sc-416469) using Lipofectamine 2000 (ThermoFisher™). Two days later, cells were treated with Nutlin-3 (10 μM) for 12 days to inhibit proliferation of cells with wild type p53, thereby enriching for p53 knockout cells. Single-cell clones were selected via limiting dilution, and p53 knockout clones were confirmed by western blotting using p53 antibody (FL-393).
C9 then was knocked down with two independent siRNAs in the two U87 p53 null clones. […] See FIG. 33A, which provides phase contrast images (40×) of two clones (KO #4 and KO #9) of p53 null U87 cells generated by CRISPR, treated with control (siCtrl) and C9 (siC9; SEQ ID NO:631) siRNA, and FIG. 33B, a WB showing C9 levels after C9 KD in KO #4 cells.
FIG. 34 is a graph presenting quantitation of data for about 90 cells, indicating the number of vacuoles per cell. Statistical significance was assessed by unpaired t-test: NS P>0.05, *P≤0.05, **P≤0.01, ***P≤0.001 ****P≤0.0001. FIG. 35 is a WB showing PARP1, phospho-ERK and γ-H2AX levels upon C9 KD (siC9; SEQ ID NO:631) in U87 KO #4 cell line.

[5] = system: U87 p53 null KO #4 cells; assay: Vacuoles in p53 null cells transfected with HA tagged wtp53; conditions: U87 p53 null KO #4 cells transfected with HA tagged wtp53
Procedure: To provide further evidence of p53 involvement in vacuolization, it was tested whether p53 transfection into p53 null cell lines in C9 KD background induced accumulation of vacuoles. […] In FIG. 36A, phase contrast images (40×) are shown of U87 p53 null KO #4 cells that were transfected with HA tagged wtp53 and then treated with control (siCtrl) or C9 (siC9; SEQ ID NO:631) siRNA. The black boxes show the location of the zoomed in images below with black arrows pointing to vacuoles. […] FIG. 36C is a graph that presents quantitation of data from about 100 cells, indicating the number of vacuoles per cell for conditions described above. Statistical significance was assessed by unpaired t-test: NS P>0.05, *P≤0.05, **P≤0.01, ***P≤0.001 ****P≤0.0001.

siC9: siRNA targeting C9 mRNA: UUAAUGAAACAAUAAUCACUC (SEQ ID NO:631; sense) and GUGAUUAUUGUUUCAUUAAUC (SEQ ID NO:632; antisense) (listed as RNA, chemistry not given here)
LC3 staining of vacuoles [1]: not stained by LC3 | fluorescence of autophagolysosomes [1]: increase fluorescence | cell viability [2]: decrease in their viability | mitochondria motility [3]: significantly reduced | mitochondria accumulation ([3]; dendrites): induced mitochondria accumulation in the dendrites | vacuolization [4]: no significant increase in vacuolization | vacuoles per cell [5]: significant increase
